{"source": "patent US20160311788A1", "about": "“Antifouling Compounds And Use Thereof” (National University of Singapore, priority 2008, published 2016)", "key": {"[1]": {"system": "marine bacteria strain S1", "test": "disc inhibition assay, strain S1", "format": "cell-based, Rhodovulum iodosum", "settings": "Rhodovulum iodosum, S1", "summary_of_the_method": "(§1)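 50 μg compound/6 mm disc (from 2 mg/ml DMSO stock); DMSO blank disc control. Lawn swabbed on Marine Agar from marine broth culture. Overnight, 35° C, dark. Readout: inhibition zone diameter (calipers), mean of 2 replicates.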"}, "[2]": {"system": "marine bacteria strain S18", "test": "disc inhibition assay, strain S18", "format": "cell-based, Microbacterium esteraromaticum", "settings": "Microbacterium esteraromaticum, S18, 24 h"}, "[3]": {"system": "marine bacteria strain S10", "test": "disc inhibition assay, strain S10", "format": "cell-based, Halobacillus trueperi", "settings": "Halobacillus trueperi, S10, 24 h", "summary_of_the_method": "as §1"}, "[4]": {"system": "marine bacteria strain S16", "test": "disc inhibition assay, strain S16", "format": "cell-based, Pseudoalteromonas piscicida", "settings": "Pseudoalteromonas piscicida, S16, 24 h", "summary_of_the_method": "as §1"}, "[5]": {"system": "Pseudomonas putida (Strain KT2440; BCRC 10459)", "test": "disc inhibition assay, REF 4", "format": "cell-based", "description": "(§2) 13 strains of marine bacteria were isolated from fouling communities located in the coastal waters around Singapore. These were characterized in earlier studies and reported in Teo et al. (U.S. patent application Ser. No. 11/265,833) and Choong et al (in prep). In addition, four reference bacterial strains were added tested: Escherichia coli (Strain K12, ATCC 15222), E. coli (strain DH5a), Pseudomonas aeruginosa (strain LMG 12228; ATCC 15692) and P. putida (strain KT2440; ATCC 47054). All the bacteria were also tested against five antibiotics: ampicillin (AMP), tetracycline (TETR), erythromycin (ERY), chloramphenicol (CHL) and streptomycin (STREP).\n(§3) Disks comprising the compounds to be tested were prepared as follows. The antibacterial assay, the pure compounds were made up to a concentration of 2 mgml^−1 in DMSO. 25 μl of the stock was pipetted onto each 6 mm sterile disc (Macherey-Nagel #484000) to obtain 50 μg of compound per disc. Equivalent volume of DMSO was used inoculated for the control.\n(§4) For all disk inhibition assays, bacterial cultures were grown in marine broth (Pronadisa #1217.00). Sterile swabs dipped into the cultures were used to inoculate Marine Agar plates with a bacterial lawn by smearing the culture over the surface. After inoculating the plates, discs with antibiotics, pharmaceuticals or control blanks were placed on each plate. Each concentration of antibiotic or pharmaceutical was tested with two replicates. After the disks were placed on the agar surface, plates were incubated overnight in the dark at 35° C. After incubation, plates were examined for zones of inhibition or clearing around control and treated disks. The diameter of any zone of clearing or inhibition was measured using Vernier calipers. There were two replicates per treatment, and the average was taken. There was no zone of inhibition around the control blanks in all the assays."}, "[6]": {"system": "Escherichia coli (Strain K12; ATCC 15222)", "test": "disc inhibition assay, REF 1", "format": "cell-based", "description": "as §2, §3, §4"}, "[7]": {"system": "Pseudomonas aeruginosa (strain LMG 12228; ATCC 15692)", "test": "disc inhibition assay, REF 3", "format": "cell-based", "description": "as §2, §3, §4"}, "[8]": {"system": "marine bacteria strain S29", "test": "disc inhibition assay, strain S29", "format": "cell-based, Bacillus hwajinpoensis", "settings": "Guptibacillus hwajinpoensis, S29, 24 h", "summary_of_the_method": "as §1"}, "[9]": {"system": "marine bacteria strain S4", "test": "disc inhibition assay, strain S4", "format": "cell-based, Bacillus algicola", "settings": "Guptibacillus algicola, S4, 24 h", "summary_of_the_method": "as §1"}, "[10]": {"system": "marine bacteria strain S9", "test": "disc inhibition assay, strain S9", "format": "cell-based, Bacillus algicola", "settings": "Guptibacillus algicola, S9, 24 h", "summary_of_the_method": "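Marine broth cultures are swabbed over Marine Agar to form a lawn. Discs holding 50 μg compound, or DMSO alone, are placed on the surface. Plates are kept overnight at 35° C without light. Inhibition zone widths are then measured and the two replicates averaged.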"}, "[11]": {"system": "marine bacteria strain S17", "test": "disc inhibition assay, strain S17", "format": "cell-based, Gordonia terrae", "summary_of_the_method": "as §1"}, "[12]": {"system": "marine bacteria strain S28", "test": "disc inhibition assay, strain S28", "format": "cell-based, Arthrobacter protophormial", "settings": "Arthrobacter, S28, 24 h", "summary_of_the_method": "as §1"}, "[13]": {"system": "marine bacteria strain S14", "test": "disc inhibition assay, strain S14", "format": "cell-based, Vibrio probioticus", "settings": "Vibrio, S14, 24 h"}, "[14]": {"system": "marine bacteria strain S3", "test": "disc inhibition assay, strain S3", "format": "cell-based, Erythrobacter aquimaris", "summary_of_the_method": "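Disc inhibition assay against a marine bacterial strain isolated from fouling communities in Singapore coastal waters. The strain was grown in marine broth and swabbed over Marine Agar plates as a lawn. 6 mm sterile discs loaded with compound in DMSO, or DMSO controls, were placed on the plates and incubated overnight in the dark at 35° C.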"}, "[15]": {"system": "Escherichia coli (Strain DH5a)", "test": "disc inhibition assay, REF 2", "format": "cell-based", "description": "as §2, §3, §4"}, "[16]": {"system": "marine bacteria strain S30", "test": "disc inhibition assay, strain S30", "format": "cell-based, Bacillus borophilicus", "settings": "Bacillus, S30, 24 h", "summary_of_the_method": "as §1"}, "[17]": {"system": "marine bacteria strain S27", "test": "disc inhibition assay, strain S27", "format": "cell-based, Tenacibaculum lutimaris", "settings": "Tenacibaculum lutimaris, S27, 24 h", "summary_of_the_method": "as §1"}}, "data": [{"smiles": "CC1(C)S[C@@H]2[C@H](NC(=O)[C@H](N)c3ccccc3)C(=O)N2[C@H]1C(=O)O", "note": "[AMP, Ampicillin, reference compound]", "values": [{"measurement": "zone of inhibition at 2 µg/disc", "setting": "[1]; strain 1, 2 ug", "value": "5 to 10", "unit": "mm"}, {"measurement": "zone of inhibition at 10 µg/disc", "setting": "[1]; strain 1, 10 ug", "value": "5 to 10", "unit": "mm"}, {"measurement": "zone of inhibition at 2 µg/disc", "setting": "[2]; strain 18, 2 ug", "value": "2 to 5", "unit": "mm"}, {"measurement": "zone of inhibition at 10 µg/disc", "setting": "[2]; strain 18, 10 ug", "value": "5 to 10", "unit": "mm"}, {"measurement": "zone of inhibition at 2 µg/disc", "setting": "[3]; strain 10, 2 ug", "value": "> 10", "unit": "mm"}, {"measurement": "zone of inhibition at 10 µg/disc", "setting": "[3]; strain 10, 10 ug", "value": "> 10", "unit": "mm"}, {"measurement": "zone of inhibition at 2 µg/disc", "setting": "[4]; strain 16, 2 ug", "value": "2 to 5", "unit": "mm"}, {"measurement": "zone of inhibition at 10 µg/disc", "setting": "[4]; strain 16, 10 ug", "value": "2 to 5", "unit": "mm"}, {"measurement": "zone of inhibition", "setting": "[5]; REF 4, 2 ug", "value": "−"}, {"measurement": "zone of inhibition", "setting": "[5]; REF 4, 10 ug", "value": "+ (2-5 mm zone of inhibition around each disk was observed.)"}, {"measurement": "zone of inhibition", "setting": "[6]; REF 1, 2 ug", "value": "−"}, {"measurement": "zone of inhibition", "setting": "[6]; REF 1, 10 ug", "value": "+ (2-5 mm zone of inhibition around each disk was observed.)"}, {"measurement": "zone of inhibition", "setting": "[7]; REF 3, 2 ug", "value": "−"}, {"measurement": "zone of inhibition", "setting": "[7]; REF 3, 10 ug", "value": "−"}, {"measurement": "zone of inhibition at 2 µg/disc", "setting": "[8]; strain 29, 2 ug", "value": "> 10", "unit": "mm"}, {"measurement": "zone of inhibition at 10 µg/disc", "setting": "[8]; strain 29, 10 ug", "value": "> 10", "unit": "mm"}, {"measurement": "zone of inhibition at 2 µg/disc", "setting": "[9]; strain 4, 2 ug", "value": "> 10", "unit": "mm"}, {"measurement": "zone of inhibition at 10 µg/disc", "setting": "[9]; strain 4, 10 ug", "value": "> 10", "unit": "mm"}, {"measurement": "zone of inhibition at 2 µg/disc", "setting": "[10]; strain 9, 2 ug", "value": "2 to 5", "unit": "mm"}, {"measurement": "zone of inhibition at 10 µg/disc", "setting": "[10]; strain 9, 10 ug", "value": "> 10", "unit": "mm"}, {"measurement": "zone of inhibition", "setting": "[11]; strain 17, 2 ug", "value": "−"}, {"measurement": "zone of inhibition", "setting": "[11]; strain 17, 10 ug", "value": "−"}, {"measurement": "zone of inhibition at 2 µg/disc", "setting": "[12]; strain 28, 2 ug", "value": "2 to 5", "unit": "mm"}, {"measurement": "zone of inhibition at 10 µg/disc", "setting": "[12]; strain 28, 10 ug", "value": "5 to 10", "unit": "mm"}, {"measurement": "zone of inhibition at 2 µg/disc", "setting": "[13]", "value": "2 to 5", "unit": "mm"}, {"measurement": "zone of inhibition at 10 µg/disc", "setting": "[13]", "value": "2 to 5", "unit": "mm"}, {"measurement": "zone of inhibition", "setting": "[14]; strain 3, 2 ug", "value": "−"}, {"measurement": "zone of inhibition", "setting": "[14]; strain 3, 10 ug", "value": "−"}, {"measurement": "zone of inhibition", "setting": "[15]; REF 2, 2 ug", "value": "−"}, {"measurement": "zone of inhibition", "setting": "[15]; REF 2, 10 ug", "value": "+ (2-5 mm zone of inhibition around each disk was observed.)"}, {"measurement": "zone of inhibition at 2 µg/disc", "setting": "[16]; strain 30, 2 ug", "value": "> 10", "unit": "mm"}, {"measurement": "zone of inhibition at 10 µg/disc", "setting": "[16]; strain 30, 10 ug", "value": "> 10", "unit": "mm"}, {"measurement": "zone of inhibition at 2 µg/disc", "setting": "[17]; strain 27, 2 ug", "value": "5 to 10", "unit": "mm"}, {"measurement": "zone of inhibition at 10 µg/disc", "setting": "[17]; strain 27, 10 ug", "value": "> 10", "unit": "mm"}]}, {"smiles": "O=C(N[C@H](CO)[C@H](O)c1ccc([N+](=O)[O-])cc1)C(Cl)Cl", "note": "[CHL, Chloramphenicol, reference compound]", "values": [{"measurement": "zone of inhibition at 30 µg/disc", "setting": "[1]; strain 1, 30 ug", "value": "5 to 10", "unit": "mm"}, {"measurement": "zone of inhibition at 30 µg/disc", "setting": "[2]; strain 18, 30 ug", "value": "5 to 10", "unit": "mm"}, {"measurement": "zone of inhibition at 30 µg/disc", "setting": "[3]; strain 10, 30 ug", "value": "> 10", "unit": "mm"}, {"measurement": "zone of inhibition at 30 µg/disc", "setting": "[4]; strain 16, 30 ug", "value": "5 to 10", "unit": "mm"}, {"measurement": "zone of inhibition", "setting": "[5]; REF 4, 30 ug", "value": "++ (5-10 mm zone was observed.)"}, {"measurement": "zone of inhibition", "setting": "[6]; REF 1, 30 ug", "value": "++ (5-10 mm zone was observed.)"}, {"measurement": "zone of inhibition", "setting": "[7]; REF 3, 30 ug", "value": "++ (5-10 mm zone was observed.)"}, {"measurement": "zone of inhibition at 30 µg/disc", "setting": "[8]; strain 29, 30 ug", "value": "> 10", "unit": "mm"}, {"measurement": "zone of inhibition at 30 µg/disc", "setting": "[9]; strain 4, 30 ug", "value": "> 10", "unit": "mm"}, {"measurement": "zone of inhibition at 30 µg/disc", "setting": "[10]; strain 9, 30 ug", "value": "> 10", "unit": "mm"}, {"measurement": "zone of inhibition at 30 µg/disc", "setting": "[11]; Gordonia terrae, S17, 24 h, strain 17, 30 ug", "value": "> 10", "unit": "mm"}, {"measurement": "zone of inhibition at 30 µg/disc", "setting": "[12]; strain 28, 30 ug", "value": "> 10", "unit": "mm"}, {"measurement": "zone of inhibition at 30 µg/disc", "setting": "[13]", "value": "5 to 10", "unit": "mm"}, {"measurement": "zone of inhibition at 30 µg/disc", "setting": "[14]; Qipengyuania aquimaris, S3, 24 h, strain 3, 30 ug", "value": "> 10", "unit": "mm"}, {"measurement": "zone of inhibition", "setting": "[15]; REF 2, 30 ug", "value": "++ (5-10 mm zone was observed.)"}, {"measurement": "zone of inhibition at 30 µg/disc", "setting": "[16]; strain 30, 30 ug", "value": "5 to 10", "unit": "mm"}, {"measurement": "zone of inhibition at 30 µg/disc", "setting": "[17]; strain 27, 30 ug", "value": "> 10", "unit": "mm"}]}]}
